Laboratory results from patent US12097192B2 (Corcept Therapeutics Incorporated, priority 2019, dated 2024).
Entries after “also recorded” stand apart in the source; their conditions may differ.

How the values were obtained:
[1] = system: Cushing's syndrome patients; experiment: Cushing's syndrome patient study: safety and adverse events; type: in vivo, human
Description: (§1) All patients gave informed consent before participating in any study-related procedures.
The safety protocol also included assessments by physical examination findings, vital signs, ECG results, pregnancy tests, clinical laboratory test results (hematology and chemistry panels), adverse events (AEs), and concomitant medications.

[2] = system: Cushing's syndrome patients; experiment: Cushing's syndrome patient study: weight loss; type: in vivo, human
Description: as §1

[3] = system: Cushing's syndrome patients; experiment: Cushing's syndrome patient study: liver function tests (ALT, AST); type: in vivo, human; settings: All Subjects, mITT
Description: All patients gave informed consent before participating in any study-related procedures. […] The study protocol called for patient visits to the study site at screening, on Day 1 (baseline), Weeks 2, 4, 6, 8, 10, and 12, and after a 4-week follow-up period for Group 1. For Group 2, the protocol called for patient visits to the study site at screening, on Day 1 (baseline), Weeks 2, 4, 6, 8, 10, 12, 14, and 16, and after a 4-week follow-up period. Patient dosing will be done at home, except on days of study visits. […] The safety protocol also included assessments by physical examination findings, vital signs, ECG results, pregnancy tests, clinical laboratory test results (hematology and chemistry panels), adverse events (AEs), and concomitant medications. […] It ignores noncompliance, protocol deviations, withdrawal, and anything that happens after randomization. In contrast, per-protocol (PP) analysis refers to inclusion in the analysis of only those patients who strictly adhered to the protocol. The PP analysis provides an estimate of the true efficacy of an intervention, i.e., among those who completed the treatment as planned.

[4] = system: other nuclear steroid hormone receptors; experiment: Binding to other nuclear steroid hormone receptors
progesterone receptor = target: T1, progesterone receptor (Homo sapiens, UniProt P06401); experiment: Progesterone receptor affinity / binding
T1 sequence (P06401 1-933): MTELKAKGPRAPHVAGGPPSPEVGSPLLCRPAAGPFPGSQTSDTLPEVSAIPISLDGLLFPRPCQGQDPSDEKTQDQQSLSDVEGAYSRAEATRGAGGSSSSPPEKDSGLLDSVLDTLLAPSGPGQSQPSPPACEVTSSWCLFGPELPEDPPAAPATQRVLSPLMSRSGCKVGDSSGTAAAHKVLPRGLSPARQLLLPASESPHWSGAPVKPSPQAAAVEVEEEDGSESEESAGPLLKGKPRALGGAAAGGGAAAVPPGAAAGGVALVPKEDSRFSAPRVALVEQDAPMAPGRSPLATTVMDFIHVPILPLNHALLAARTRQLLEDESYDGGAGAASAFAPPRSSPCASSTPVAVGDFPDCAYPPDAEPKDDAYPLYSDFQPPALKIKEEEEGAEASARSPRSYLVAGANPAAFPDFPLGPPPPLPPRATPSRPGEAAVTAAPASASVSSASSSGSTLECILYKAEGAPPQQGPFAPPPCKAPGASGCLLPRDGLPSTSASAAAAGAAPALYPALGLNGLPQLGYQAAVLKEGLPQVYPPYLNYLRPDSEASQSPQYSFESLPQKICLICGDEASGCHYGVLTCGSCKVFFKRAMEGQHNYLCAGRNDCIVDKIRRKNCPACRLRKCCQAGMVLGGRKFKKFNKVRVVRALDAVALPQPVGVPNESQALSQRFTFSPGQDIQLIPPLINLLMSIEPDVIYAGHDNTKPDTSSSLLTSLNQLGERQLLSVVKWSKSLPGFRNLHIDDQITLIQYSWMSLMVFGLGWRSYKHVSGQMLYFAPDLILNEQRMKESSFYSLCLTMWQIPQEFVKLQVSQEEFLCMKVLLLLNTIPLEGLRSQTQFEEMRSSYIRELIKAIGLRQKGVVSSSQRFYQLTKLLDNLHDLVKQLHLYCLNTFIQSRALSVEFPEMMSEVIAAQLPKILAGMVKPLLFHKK

[5] = system: Cushing's syndrome patients; experiment: Cushing's syndrome patient study: glucose control / hyperglycemia response; type: in vivo, human; settings: for Fructosamine, IGT mean change from Baseline to Last Observed / HOMA-IR, IGT mean change from Baseline to Last Observed / AUCglucose mean change from Baseline to Last Observed / AUCinsulin mean change from Baseline to Last Observed: All Subjects
Description: All patients gave informed consent before participating in any study-related procedures. […] The study protocol called for patient visits to the study site at screening, on Day 1 (baseline), Weeks 2, 4, 6, 8, 10, and 12, and after a 4-week follow-up period for Group 1. For Group 2, the protocol called for patient visits to the study site at screening, on Day 1 (baseline), Weeks 2, 4, 6, 8, 10, 12, 14, and 16, and after a 4-week follow-up period. Patient dosing will be done at home, except on days of study visits. Response criteria for hyperglycemia were changes from baseline in glucose tolerance as measured by: ≥0.5% decrease in HbA1c, normalization or ≥50 mg/dL decrease in 2-hr OGTT glucose, or decrease in total daily insulin (≥25%) or sulfonylurea dose (≥50%). Response criteria for hypertension (HTN) was a ≥5 mm Hg decrease in mean systolic and/or diastolic blood pressure (SBP/DBP). […] It ignores noncompliance, protocol deviations, withdrawal, and anything that happens after randomization. In contrast, per-protocol (PP) analysis refers to inclusion in the analysis of only those patients who strictly adhered to the protocol. The PP analysis provides an estimate of the true efficacy of an intervention, i.e., among those who completed the treatment as planned.

[6] = Group 1 (100-200 mg/day, 12 weeks)
[7] = Group 2 (250-400 mg/day, 16 weeks)
[8] = mITT, Group 1 (100-200 mg/day, 12 weeks)
[9] = mITT, Group 2 (250-400 mg/day, 16 weeks)
[10] = mPP, Group 1 (100-200 mg/day, 12 weeks)
[11] = mPP, Group 2 (250-400 mg/day, 16 weeks)

Cn1cc(S(=O)(=O)N2CCC3=Cc4c(cnn4-c4ccc(F)cc4)C[C@]3(C(=O)c3cc(C(F)(F)F)ccn3)C2)cn1 [relacorilant, (R)-(1-(4-fluorophenyl)-6-((1-methyl-1H-pyrazol-4-yl)sulfonyl)-4,4a,5,6,7,8-hexahydro-1H-pyrazolo[3,4-g]isoquinolin-4a-yl) (4-(trifluoromethyl)pyridin-2-yl)methanone]
adverse effects of progesterone receptor antagonism ([1]; Cushing's syndrome patients): no adverse effects of progesterone receptor antagonism | drug induced hypokalemia ([1]; Cushing's syndrome patients): none of the patients suffered hypokalemia; also recorded: without any episodes of drug induced hypokalemia; also recorded: no patients developed drug induced hypokalemia; also recorded: no reported instances | drug induced vaginal bleeding ([1]; Cushing's syndrome patients): No drug-induced hypokalemia or vaginal bleeding; also recorded: no cases of drug induced vaginal bleeding; also recorded: no reported instances | drug-related serious adverse events ([1]; Cushing's syndrome patients): no drug-related serious adverse events | most common treatment-emergent adverse events (TEAEs) ([1]; Cushing's syndrome patients): back pain, edema, headache, and nausea | tolerability ([1]; Cushing's syndrome patients, up to 400 mg/day): generally well tolerated | serious TEAEs ([1]; all from the HD group): Five serious TEAEs were reported in 4 patients | endometrial hypertrophy developed on previous mifepristone ([1]; one patient previously treated with mifepristone, during treatment with relacorilant): completely resolved | safety profile compared with mifepristone ([1]; patients with endogenous Cushing syndrome): significantly better | average weight loss ([2]; doses up to 200 mg daily, within 3 months): 2.2 kg | average weight loss ([2]; doses up to 400 mg daily, within 3 months): 5.1 kg | weight loss ([2]; many of the patients): Some weight loss | weight changes ([2]; within 3 months, in half of the patients): significant weight changes | ALT (SGPT) mean change from Baseline to Last Observed [3, 6]: −7.88 U/L | AST (SGOT) mean change from Baseline to Last Observed [3, 6]: −2.71 U/L | ALT (SGPT) mean change from Baseline to Last Observed [3, 7]: −13.35 U/L | AST (SGOT) mean change from Baseline to Last Observed [3, 7]: −7.31 U/L | ALT (SGPT) mean change from Baseline to Last Observed ([3]; Overall): −10.62 U/L | AST (SGOT) mean change from Baseline to Last Observed ([3]; Overall): −4.94 U/L | binding to other nuclear steroid hormone receptors [4]: does not bind | binding to the progesterone receptor (progesterone receptor): lack of binding to the progesterone receptor | progesterone receptor affinity (progesterone receptor; evidence from Cushing's syndrome patient study): no evidence of relacorilant having any progesterone receptor affinity | Fructosamine, IGT mean change from Baseline to Last Observed [5, 8]: -6.85 µmol/L | HOMA-IR, IGT mean change from Baseline to Last Observed [5, 8]: 0.05 | Fructosamine, IGT mean change from Baseline to Last Observed [5, 9]: -21.58 µmol/L | HOMA-IR, IGT mean change from Baseline to Last Observed [5, 9]: −3.2 | Fructosamine, IGT mean change from Baseline to Last Observed ([5]; mITT, Overall): -13.92 µmol/L | HOMA-IR, IGT mean change from Baseline to Last Observed ([5]; mITT, Overall): −1.58 | Fructosamine, IGT mean change from Baseline to Last Observed [5, 10]: -8.08 µmol/L | HOMA-IR, IGT mean change from Baseline to Last Observed [5, 10]: 0.39 | Fructosamine, IGT mean change from Baseline to Last Observed [5, 11]: -18.92 µmol/L | HOMA-IR, IGT mean change from Baseline to Last Observed [5, 11]: −3.28 | Fructosamine, IGT mean change from Baseline to Last Observed ([5]; mPP, Overall): -13.28 µmol/L | HOMA-IR, IGT mean change from Baseline to Last Observed ([5]; mPP, Overall): −1.37 | AUCglucose mean change from Baseline to Last Observed [5, 8]: -3.11 mmol·h/L | AUCinsulin mean change from Baseline to Last Observed [5, 8]: −33.28 hr * μU/mL | AUCglucose mean change from Baseline to Last Observed [5, 9]: -0.8 mmol·h/L | AUCinsulin mean change from Baseline to Last Observed [5, 9]: −32.26 hr * μU/mL | AUCglucose mean change from Baseline to Last Observed ([5]; mITT, Overall): -1.96 mmol·h/L | AUCinsulin mean change from Baseline to Last Observed ([5]; mITT, Overall): −32.77 hr * μU/mL | AUCglucose mean change from Baseline to Last Observed [5, 10]: -3.63 mmol·h/L | AUCinsulin mean change from Baseline to Last Observed [5, 10]: −38.79 hr * μU/mL | AUCglucose mean change from Baseline to Last Observed [5, 11]: -1.24 mmol·h/L | AUCinsulin mean change from Baseline to Last Observed [5, 11]: −37.39 hr * μU/mL | AUCglucose mean change from Baseline to Last Observed ([5]; mPP, Overall): -2.48 mmol·h/L | AUCinsulin mean change from Baseline to Last Observed ([5]; mPP, Overall): −38.12 hr * μU/mL | AUCglucose in patients with hyperglycemia ([5]; Cushing's syndrome patients): statistically significant reduction | hyperglycemia response rate ([5]; HD group (doses up to 400 mg), week 16): 50% | hyperglycemia response rate ([5]; LD group (doses up to 200 mg), week 12): 15.4% | patients with hyperglycaemia showing glycaemic improvement (responders/patients) ([5]; doses up to 400 mg): 6/12
